Assays:
Barnyard grass [1] = assay: weed control effect in transplanted rice field (pot, water application); assay type: in vivo, Echinochloa; conditions: 500 g a.i./ha, treated at 0.5 leaf stage, 14 days after treatment, naked eye, weed resistant to pyrazosulfuron-ethyl; further: key: 10: completely dead; above 90% growth inhibition rate; above 80% growth inhibition rate; above 70% growth inhibition rate; above 60% growth inhibition rate; above 50% growth inhibition rate; 4: above 30% growth inhibition rate; above 30% growth inhibition rate; above 20% growth inhibition rate; above 1-10% growth inhibition rate; 0: no effect
Experimental: (§1) Rice field soil was loaded into a 1/1,000,000 ha pot. The seeds of Echinochloa, Scirpus juncoides, Bidens tripartite and Sagittaria trifolia were sowed and gently covered with soil, then left to stand still in greenhouse in the state of 0.5-1 cm of water storage. The tuber of Sagittaria trifolia was planted in the next day or 2 days later. It was kept at 3-4 cm of water storage thereafter. The weeds were treated by dripping the WP or SC water diluents prepared according to the common preparation method of the compounds of the present invention with pipette homogeneously to achieve specified effective amount when Echinochloa, Scirpus juncoides and Bidens tripartite reached 0.5 leaf stage and Sagittaria trifolia reached the time point of primary leaf stage.
(§2) The fertility condition of Echinochloa, Scirpus juncoides, Bidens tripartite and Sagittaria trifolia 14 days after the treatment of the compound of the invention and the fertility condition of rice 21 days after the treatment of the compound of the invention respectively with the naked eye.
(§3) Note: The seeds of barnyard grass, rushlike bulrush, arrowhead and beggartick are collected from Heilongjing Province of China. Tests indicate that the weeds are resistant to common application rate of pyrazosulfuron-ethyl.

Rice = assay: transplanted rice safety evaluation; assay type: in vivo; conditions: transplanted 3 leaf stage japonica rice, 500 g a.i./ha, treated 5 days after transplantation, 21 days after treatment, naked eye
Experimental: In addition, the rice field soil that loaded into the 1/1,000,000 ha pot was leveled to keep water storage at 3-4 cm depth. The 3 leaf stage rice (japonica rice) was transplanted at 3 cm of transplanting depth the next day. The compound of the present invention was treated by the same way after 5 days of transplantation.
as §2

Beggartick = assay: weed control effect in transplanted rice field (pot, water application); assay type: in vivo, Bidens tripartite; conditions: 500 g a.i./ha, treated at 0.5 leaf stage, 14 days after treatment, naked eye, weed resistant to pyrazosulfuron-ethyl
Experimental: as §1, §2, §3

Wheat = assay: post emergence stage greenhouse pot spray, wheat safety; assay type: in vivo; conditions: 16 g/mu, sprayed at 2-3 leaf stage, after 3 weeks; further: key: 10: completely dead; above 90% growth inhibition rate; above 80% growth inhibition rate; above 70% growth inhibition rate; above 60% growth inhibition rate; above 50% growth inhibition rate; 4: above 30% growth inhibition rate; above 30% growth inhibition rate; above 20% growth inhibition rate; above 1-10% growth inhibition rate; 0: no effect
Experimental: (§4) The activity level standard of harmful plant damage (i.e. growth inhibition rate) is as follows: The above described growth control rate is fresh weight control rate. Monocotyledonous and dicotyledonous weed seeds and main crop seeds (i.e. wheat, corn, rice, soybean, cotton, oilseed, millet and Sorghum) were put into a plastic pot loaded with soil. Then covered with 0.5-2 cm soil, the seeds were allowed to grow in good greenhouse environment. The test plants were treated at 2-3 leaf stage 2-3 weeks after sowing. […] The solution was sprayed to the plants with a sprayer. Then the plants were cultured for 3 weeks in the greenhouse.

Arrowhead = assay: weed control effect in transplanted rice field (pot, water application); assay type: in vivo, Sagittaria trifolia; conditions: 500 g a.i./ha, treated at primary leaf stage, 14 days after treatment, naked eye, weed resistant to pyrazosulfuron-ethyl
Experimental: as §1, §2, §3

rushlike bulrush = assay: as above; assay type: in vivo, Scirpus juncoides; conditions: 500 g a.i./ha, treated at 0.5 leaf stage, 14 days after treatment, naked eye, weed resistant to pyrazosulfuron-ethyl
Experimental: as §1, §2, §3

Corn = assay: post emergence stage greenhouse pot spray, corn safety; assay type: in vivo; conditions: 16 g/mu, sprayed at 2-3 leaf stage, after 3 weeks; further: key: 10: completely dead; above 90% growth inhibition rate; above 80% growth inhibition rate; above 70% growth inhibition rate; above 60% growth inhibition rate; above 50% growth inhibition rate; 4: above 30% growth inhibition rate; above 30% growth inhibition rate; above 20% growth inhibition rate; above 1-10% growth inhibition rate; 0: no effect
Experimental: as §4

Ning Jing 43 = assay: post emergence stage greenhouse pot spray, rice safety; assay type: in vivo; set-up: key: 10: completely dead; above 90% growth inhibition rate; above 80% growth inhibition rate; above 70% growth inhibition rate; above 60% growth inhibition rate; above 50% growth inhibition rate; 4: above 30% growth inhibition rate; above 30% growth inhibition rate; above 20% growth inhibition rate; above 1-10% growth inhibition rate; 0: no effect; conditions: sprayed at 2-3 leaf stage, after 3 weeks
Experimental: as §4

Flixweed = assay: weed control effect in post emergence stage, greenhouse pot spray; assay type: in vivo; conditions: 16 g/mu, sprayed at 2-3 leaf stage, after 3 weeks
Experimental: as §4

Barnyard grass [2] = assay: as above; assay type: in vivo; conditions: sprayed at 2-3 leaf stage, after 3 weeks
Experimental: as §4

[3] = system: barnyard grass, rushlike bulrush, arrowhead and beggartick; assay: resistance tests of the weeds collected from Heilongjing Province; assay type: in vivo; conditions: common application rate; seeds collected from Heilongjing Province of China

Structure (SMILES)	weed control effect (activity level), Barnyard grass (Barnyard grass [1])	damage (activity level), Rice (Rice)	weed control effect (activity level), Beggartick (Beggartick)	damage (activity level), Wheat (Wheat)	weed control effect (activity level), Arrowhead (Arrowhead)	weed control effect (activity level), rushlike bulrush (rushlike bulrush)	damage (activity level), Corn (Corn)	damage (activity level), Ning Jing 43 (Ning Jing 43; 1 g/mu)	damage (activity level), Ning Jing 43 (Ning Jing 43; 2 g/mu)	damage (activity level), Ning Jing 43 (Ning Jing 43; 4 g/mu)	damage (activity level), Ning Jing 43 (Ning Jing 43; 8 g/mu)	damage (activity level), Ning Jing 43 (Ning Jing 43; 16 g/mu)	weed control effect (activity level), Flixweed (Flixweed)	weed control effect (activity level), Barnyard grass (Barnyard grass [2]; 1 g/mu)	weed control effect (activity level), Barnyard grass (Barnyard grass [2]; 2 g/mu)	weed control effect (activity level), Barnyard grass (Barnyard grass [2]; 4 g/mu)	weed control effect (activity level), Barnyard grass (Barnyard grass [2]; 8 g/mu)	weed control effect (activity level), Barnyard grass (Barnyard grass [2]; 16 g/mu)	resistance of the weeds (in words) [3]
CCOC(=O)Oc1c(C(=O)c2ccc(S(C)(=O)=O)c(Cn3cc(C)cn3)c2Cl)c(C)nn1C [Compound 31]	10	1 (above 1-10% growth inhibition rate)	10	0	9 (above 90% growth inhibition rate)	10	0	0	0	0	0	0	10	3 (above 30% growth inhibition rate)	5 (above 50% growth inhibition rate)	6 (above 60% growth inhibition rate)	8 (above 80% growth inhibition rate)	9 (above 90% growth inhibition rate)	
Cc1ccc(S(=O)(=O)Oc2c(C(=O)c3ccc(S(C)(=O)=O)c(Cn4nc(C)cc4C)c3Cl)c(C)nn2C)cc1 [Compound 33]	10	1 (above 1-10% growth inhibition rate)	10	0	10	10	0	0	0	0	0	0	10	4 (above 30% growth inhibition rate)	6 (above 60% growth inhibition rate)	5 (above 50% growth inhibition rate)	7 (above 70% growth inhibition rate)	8 (above 80% growth inhibition rate)	
CCOC(=O)c1cnn(C)c1S(=O)(=O)NC(=O)Nc1nc(OC)cc(OC)n1 [pyrazosulfuron-ethyl]																			resistant
